In general, IC50 refers to the concentration that gives 50% inhibition.

The test system of data set [1] is RAW264.7. As to the kind of experiment: Anti-inflammatory activity in mouse RAW264.7 cells assessed as inhibition of LPS-induced NO production preincubated for 1 hr followed by LPS-stimulation and measured after 18 hrs by Griess reagent-based assay. Type of data set: functional, cell-based. In general terms: Nitrite, measured by Griess reagent, commonly stands in for NO production.

For data set [2], the system named is RAW264.7. The data set can be described thus: Cytotoxicity against mouse RAW264.7 cells at anti-inflammatory IC50 after 19 hrs by MTT assay. In kind it is cell-based. The conditions noted are these: raw264.7, 19 h. On the technique in general: Tetrazolium dyes change colour on reduction, which living cells bring about.

As to `C=C1CC[C@]2(C(=O)O)CC[C@]3(C)C(=CC[C@@H]4[C@@]5(C)CC[C@H](O[C@@H]6OC[C@H](O)[C@H](O)[C@H]6O[C@@H]6O[C@H](CO)[C@@H](O)[C@H](O)[C@H]6O)C(C)(C)[C@@H]5CC[C@]43C)[C@@H]2C1`, the half-maximal inhibitory concentration (IC50) in data set [1] was found to be 16.6 µM. In addition, in data set [2], the Activity result is given as “Non-Toxic”.

As to `C[C@@H]1O[C@@H](O[C@H]2[C@H](O)[C@@H](O)[C@H](OC[C@H]3O[C@@H](OC(=O)[C@]45CCC(C)(C)C[C@H]4C4=CC[C@@H]6[C@@]7(C)CC[C@H](O)C(C)(C)[C@@H]7CC[C@@]6(C)[C@]4(C)CC5)[C@H](O)[C@@H](O)[C@@H]3O)O[C@@H]2CO)[C@H](O)[C@H](O)[C@H]1O` [CIRENSENOSIDE O], in data set [1], the IC50 is > 50 µM. Also, the Activity entry in data set [2] is given as “Non-Toxic”.

With `CC1(C)CC[C@]2(C(=O)O[C@@H]3O[C@H](CO[C@@H]4O[C@H](CO)[C@@H](O)[C@H](O)[C@H]4O)[C@@H](O)[C@H](O)[C@H]3O)CC[C@]3(C)C(=CC[C@@H]4[C@@]5(C)CC[C@H](O)C(C)(C)[C@@H]5CC[C@]43C)[C@@H]2C1`, in data set [1], the concentration for half-maximal inhibition (IC50) is > 50 µM. Also, in data set [2], the Activity entry is on record as “Non-Toxic”.

Take `C[C@@H]1O[C@@H](O[C@H]2[C@H](O[C@H]3CC[C@]4(C)[C@H]5CC=C6[C@@H]7CC(C)(C)CC[C@]7(C(=O)O)CC[C@@]6(C)[C@]5(C)CC[C@H]4C3(C)C)OC[C@H](O)[C@@H]2O[C@@H]2O[C@H](CO)[C@@H](O)[C@H](O)[C@H]2O)[C@H](O)[C@H](O)[C@H]1O`: in data set [1], the 50% inhibitory concentration (IC50) is > 50 µM. The Activity entry in data set [2] is on record as “Non-Toxic”.

As to `CC1(C)CC[C@]2(C(=O)O[C@@H]3O[C@H](CO[C@@H]4O[C@H](CO)[C@@H](O)[C@H](O)[C@H]4O)[C@@H](O)[C@H](O)[C@H]3O)CC[C@]3(C)C(=CC[C@@H]4[C@@]5(C)CC[C@H](O[C@@H]6OC[C@H](O)[C@H](O)[C@H]6O[C@@H]6O[C@H](CO)[C@@H](O)[C@H](O)[C@H]6O)[C@@](C)(CO)[C@@H]5CC[C@]43C)[C@@H]2C1`, in data set [1], the concentration for half-maximal inhibition (IC50) is > 50 µM. The Activity entry in data set [2] was “Non-Toxic”.

As to `CC1(C)CC[C@]2(C(=O)O[C@@H]3O[C@H](CO)[C@@H](O)[C@H](O)[C@H]3O)CC[C@]3(C)C(=CC[C@@H]4[C@@]5(C)CC[C@H](O)C(C)(C)[C@@H]5CC[C@]43C)[C@@H]2C1`, in data set [1], the IC50 was > 50 µM. In addition, in data set [2], the Activity entry is “Non-Toxic”.

`C=C1CC[C@]2(C(=O)O[C@@H]3O[C@H](CO[C@@H]4O[C@H](CO)[C@@H](O[C@@H]5O[C@@H](C)[C@H](O)[C@@H](O)[C@H]5O)[C@H](O)[C@H]4O)[C@@H](O)[C@H](O)[C@H]3O)CC[C@]3(C)C(=CC[C@@H]4[C@@]5(C)CC[C@H](O[C@@H]6OC[C@H](O)[C@H](O)[C@H]6O)[C@@](C)(CO)[C@@H]5CC[C@]43C)[C@@H]2C1`: the half-maximal inhibitory concentration (IC50) in data set [1] is > 50 µM. In addition, the Activity result in data set [2] is listed as “Non-Toxic”.

With `CC1(C)CC[C@]2(C(=O)O[C@@H]3O[C@H](CO[C@@H]4O[C@H](CO)[C@@H](O)[C@H](O)[C@H]4O)[C@@H](O)[C@H](O)[C@H]3O)CC[C@]3(C)C(=CC[C@@H]4[C@@]5(C)CC[C@H](O[C@@H]6OC[C@H](O)[C@H](O[C@@H]7O[C@H](CO)[C@@H](O)[C@H](O)[C@H]7O)[C@H]6O)C(C)(C)[C@@H]5CC[C@]43C)[C@@H]2C1`, the IC50 in data set [1] was > 50 µM. In addition, the Activity entry in data set [2] is recorded as “Non-Toxic”.

For the compound `CC1(C)CC[C@]2(C(=O)O[C@@H]3O[C@H](CO[C@@H]4O[C@H](CO)[C@@H](O)[C@H](O)[C@H]4O)[C@@H](O)[C@H](O)[C@H]3O)CC[C@]3(C)C(=CC[C@@H]4[C@@]5(C)CC[C@H](O)[C@@](C)(CO)[C@@H]5CC[C@]43C)[C@@H]2C1` [DIPSACUSSAPONIN A], the IC50 in data set [1] is > 50 µM. Besides, the Activity result in data set [2] was “Non-Toxic”.

The values above are taken from ChEMBL document CHEMBL4400561, “Isolation, structural elucidation, and insights into the anti-inflammatory effects of triterpene saponins from the leaves of Stauntonia hexaphylla” (Bioorg Med Chem Lett, 2019).
